From ChEMBL document CHEMBL1201862, “PubChem BioAssay data set” (2004)
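Compound exposure: 48 hours, 5 concentrations, 96-well plates. GI50 is the concentration that inhibits growth by half.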 Calls of active or inactive are those of the source. Rule as the data show it: active = GI50 up to about 1.1 µM and inactive = higher.

Legend:
Experiment in all cases: inhibition of tumour cell growth, NCI panel, 48 h
A498 = system: A498
A549 = system: A549
ACHN = system: ACHN
CCRF-CEM = system: CCRF-CEM
HL-60 = system: HL-60
K562 = system: K562
LOX IMVI = system: LOX IMVI
MDA-MB-435 = system: MDA-MB-435
Malme-3M = system: Malme-3M
NCI-H226 = system: NCI-H226
NCI-H23 = system: NCI-H23
NCI-H460 = system: NCI-H460
OVCAR-5 = system: OVCAR-5
SF-539 = system: SF-539
SNB-75 = system: SNB-75
SW-620 = system: SW-620
T47D = system: T47D
UO-31 = system: UO-31
MOLT-4 = system: MOLT-4
RPMI-8226 = system: RPMI-8226

Measured: GI50

O=C(Nc1cccc2ccccc12)c1ccccc1
inactive: A498 > 100 µM | A549 > 100 µM | ACHN > 100 µM | CCRF-CEM 27.1 µM | HL-60 > 100 µM | K562 76.6 µM | LOX IMVI > 100 µM | MDA-MB-435 22.6 µM | Malme-3M 88.3 µM | NCI-H226 > 100 µM | NCI-H23 > 100 µM | NCI-H460 > 100 µM | OVCAR-5 > 100 µM | SF-539 64.7 µM | SNB-75 21.8 µM | SW-620 34.4 µM | T47D 11.5 µM | UO-31 > 100 µM

CCN(CC)CCn1nc(N)c2nc3cc(Cl)ccc3nc21
inactive: A498 > 100 µM | A549 49.8 µM | ACHN 37.5 µM | CCRF-CEM > 10 µM | HL-60 61.4 µM | K562 40.7 µM | LOX IMVI 51.2 µM | MDA-MB-435 97.9 µM | MOLT-4 33.4 µM | Malme-3M 61.7 µM | NCI-H226 70.1 µM | NCI-H23 91.6 µM | NCI-H460 34.3 µM | OVCAR-5 89.1 µM | RPMI-8226 89.9 µM | SW-620 63 µM | T47D > 100 µM | UO-31 23.8 µM

Cc1ccc(/C=N\NC(=O)c2ccncc2)s1
inactive: A498 > 100 µM | A549 > 100 µM | ACHN > 100 µM | CCRF-CEM > 100 µM | HL-60 > 100 µM | K562 > 100 µM | MDA-MB-435 > 100 µM | MOLT-4 > 100 µM | Malme-3M > 100 µM | NCI-H226 > 100 µM | NCI-H23 > 100 µM | NCI-H460 > 100 µM | OVCAR-5 > 100 µM | RPMI-8226 > 100 µM | SF-539 > 100 µM | SW-620 > 100 µM | T47D > 100 µM | UO-31 > 100 µM

C1=C[C@]2(CCC13OCCO3)COc1ccccc12
inactive: A498 > 100 µM | A549 > 100 µM | ACHN 36.6 µM | CCRF-CEM 33.3 µM | HL-60 6.81 µM | K562 11.9 µM | LOX IMVI 21.5 µM | MDA-MB-435 31.9 µM | MOLT-4 20.2 µM | NCI-H226 31.9 µM | NCI-H23 26.5 µM | NCI-H460 31.7 µM | OVCAR-5 30.9 µM | RPMI-8226 25.5 µM | SNB-75 42.3 µM | SW-620 54.8 µM | T47D 47 µM | UO-31 35.3 µM

CC1=C(OC2OC(CO)C(O)C(O)C2O)C(=O)C[C@H]2C1=CC[C@@H]1[C@@]2(C)C(=O)C[C@]2(C)[C@@H]([C@@](C)(O)C(=O)CCC(C)(C)O)[C@H](O)C[C@@]12C (stereo not given in full)
inactive: A498 > 100 µM | A549 > 100 µM | ACHN > 100 µM | CCRF-CEM > 100 µM | HL-60 > 100 µM | K562 > 100 µM | LOX IMVI > 100 µM | MDA-MB-435 > 100 µM | MOLT-4 > 100 µM | Malme-3M > 100 µM | NCI-H226 > 100 µM | NCI-H23 > 100 µM | NCI-H460 > 100 µM | OVCAR-5 > 100 µM | SF-539 > 100 µM | SNB-75 > 100 µM | SW-620 > 100 µM | T47D > 100 µM | UO-31 > 100 µM

CC1=NN=C(N)N/C1=C\C(Sc1ccc(Cl)cc1)c1ccc(Cl)cc1Cl (stereo not given)
inactive: A498 19.2 µM | A549 8.34 µM | ACHN 14.2 µM | CCRF-CEM 2.33 µM | HL-60 3.74 µM | K562 1.28 µM | LOX IMVI 14.3 µM | MDA-MB-435 18.1 µM | MOLT-4 7.29 µM | Malme-3M 13.4 µM | NCI-H226 15.1 µM | NCI-H23 13.1 µM | NCI-H460 8.77 µM | OVCAR-5 15.9 µM | RPMI-8226 14.1 µM | SNB-75 13.9 µM | SW-620 17.2 µM | T47D 14.2 µM | UO-31 11.2 µM

C[C@@]12C[C@@H](c3ccccc3O1)N1CCSC1=N2
inactive: A498 > 100 µM | ACHN > 100 µM | HL-60 > 100 µM | K562 > 100 µM | LOX IMVI > 100 µM | MDA-MB-435 > 100 µM | MOLT-4 75.5 µM | Malme-3M > 100 µM | NCI-H226 > 100 µM | NCI-H23 > 100 µM | NCI-H460 > 100 µM | OVCAR-5 > 100 µM | RPMI-8226 > 100 µM | SF-539 > 100 µM | SNB-75 > 100 µM | SW-620 > 100 µM | T47D > 100 µM | UO-31 > 100 µM

CC(C)C1=CC23CCC4C(C)(C(=O)O)CCCC4(C)C2CC1C1C(=O)N(c2cccc(N4C(=O)C5C6CC7C8(C)CCCC(C)(C(=O)O)C8CCC7(C=C6C(C)C)C5C4=O)c2)C(=O)C13 (stereo not given)
inactive: A498 13.4 µM | A549 14.7 µM | ACHN 13.4 µM | CCRF-CEM 6.31 µM | HL-60 9.79 µM | K562 7.87 µM | MDA-MB-435 4.02 µM | MOLT-4 11.1 µM | Malme-3M 17 µM | NCI-H226 16.6 µM | NCI-H23 3.4 µM | OVCAR-5 7.74 µM | RPMI-8226 9.35 µM | SF-539 9.08 µM | SW-620 16.3 µM | T47D 16.8 µM | UO-31 14.8 µM
